Experimental data taken from article PMC9218685, “Legume Plant Peptides as Sources of Novel Antimicrobial Molecules Against Human Pathogens” (Frontiers in Molecular Biosciences, 2022).
≈ marks a conversion by molar mass, not a printed value. Entries after “also recorded” stand apart in the source; their conditions may differ. Peptide text beside a SMILES is read from it.

What was measured:
Format in all cases: cell-based
[1] = test system: Acinetobacter baumannii (ATCC 17978); experiment: microbe, parasite or virus in culture; conditions: ATCC 17978, 3 h
Outline: (§1)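 About 10^7 log-phase bacteria were treated for 3 h in potassium-phosphate buffer (pH 7.4) with 2-fold peptide dilutions from 25 µM downward. MBC was the lowest concentration that completely eliminated viable bacteria.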

[2] = test system: Escherichia coli (ATCC 8739); conditions: ATCC 8739, 3 h
Outline: as §1

[3] = test system: Klebsiella pneumoniae (NCTC 13440); conditions: NCTC 13440, 3 h
Outline: as §1

[4] = test system: Pseudomonas aeruginosa (ATCC 27853); conditions: ATCC 27853, 3 h
Outline: as §1

[5] = test system: Salmonella enterica (ATCC 13076); conditions: ATCC 13076, 3 h
Outline: as §1

[6] = test system: Staphylococcus aureus (HNCMO112011); conditions: HNCMO112011, 3 h
Outline: as §1

[7] = test system: Enterococcus faecalis (ATCC 29212); conditions: for Ability to kill E. faecalis: 3 h, ~10^7 log phase bacteria, peptides ≤25 µM; for MBC Enterococcus faecalis: ATCC 29212, 3 h
Outline: as §1

[8] = test system: Listeria monocytogenes (ATCC 19111); conditions: ATCC 19111, 3 h
Outline: as §1

[9] = test system: E. coli, S. enteritidis, P. aeruginosa, L. monocytogenes, S. aureus, E. faecalis, K. pneumoniae and A. baumannii; experiment: Antimicrobial activity assay, spectrum over the eight tested pathogenic bacteria; conditions: 3 h treatment of ~10^7 log phase bacteria, peptides 25 to 0.8 µM; active = MBC ≤25 µM
Outline: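 Log-phase bacteria (~10^7) treated 3 h with NCR peptides in potassium-phosphate buffer pH 7.4, two-fold dilutions from 25 µM to 0.8 µM. MBC is the lowest concentration completely eliminating viable bacteria. Strains: E. faecalis ATCC 29212, S. aureus HNCMO112011, L. monocytogenes ATCC 19111, P. aeruginosa ATCC 27853, E. coli ATCC 8739, S. enterica ATCC 13076, K. pneumoniae NCTC 13440, A. baumannii ATCC 17978.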

SMILES	MBC Acinetobacter baumannii [1] [µM]	MBC Escherichia coli [2] [µM]	MBC Klebsiella pneumoniae [3] [µM]	MBC Pseudomonas aeruginosa [4] [µM]	MBC Salmonella enterica [5] [µM]	MBC Staphylococcus aureus [6] [µM]	Ability to kill E. faecalis [7]	MBC Enterococcus faecalis [7] [µM]	MBC Listeria monocytogenes [8] [µM]	Antibacterial spectrum over the eight tested bacterial strains [9]
CC(C)C[C@H](NC(=O)[C@H](CS)NC(=O)[C@H](CCCCN)NC(=O)CNC(=O)[C@@H](N)Cc1ccccc1)C(=O)N[C@@H](CCCCN)C(=O)N[C@@H](CC(C)C)C(=O)N[C@@H](CCCCN)C(=O)N[C@@H](CS)C(=O)N[C@H](C(=O)N[C@@H](Cc1ccc(O)cc1)C(=O)N[C@H](C(=O)N1CCC[C@H]1C(=O)N[C@@H](CCCCN)C(=O)N[C@@H](CCCNC(=N)N)C(N)=O)[C@@H](C)O)C(C)C [GoNCR308 (16-30)] (H-FGKCLKLKCVYTPKR-NH2; N-terminus assumed)	3.125 (≈ 5.57 µg/mL)	3.125 (≈ 5.57 µg/mL)	25 (≈ 44.6 µg/mL)	3.125 (≈ 5.57 µg/mL)	3.125 (≈ 5.57 µg/mL)	50 (≈ 89.2 µg/mL)				
CC[C@H](C)[C@H](NC(=O)CNC(=O)[C@H](CCCNC(=N)N)NC(=O)[C@H](CCCCN)NC(=O)[C@H](CCCNC(=N)N)NC(=O)[C@@H](NC(=O)[C@H](CCCCN)NC(=O)[C@H](CS)NC(=O)[C@H](CC(C)C)NC(=O)CNC(=O)CNC(=O)[C@@H](NC(=O)[C@H](CS)NC(=O)[C@H](CCCNC(=N)N)NC(=O)[C@@H](N)Cc1c[nH]cn1)[C@@H](C)CC)C(C)C)C(=O)N[C@@H](CCCCN)C(=O)NCC(=O)N[C@@H](Cc1ccccc1)C(=O)N[C@H](C(=O)N[C@@H](CC(N)=O)C(=O)N[C@H](C(=O)N1CCC[C@H]1C(N)=O)[C@@H](C)CC)[C@@H](C)CC [GoNCR313 (23-44)] (H-HRCIGGLCKVRKRGIKGFINIP-NH2; N-terminus assumed)		3.125 (≈ 7.7 µg/mL)	12.5 (≈ 30.8 µg/mL)	3.125 (≈ 7.7 µg/mL)	6.25 (≈ 15.4 µg/mL)					
CC[C@H](C)[C@H](NC(=O)[C@H](CCC(N)=O)NC(=O)[C@H](CCCCN)NC(=O)[C@H](CCCNC(=N)N)NC(=O)[C@@H](NC(=O)[C@H](Cc1ccccc1)NC(=O)[C@H](Cc1ccccc1)NC(=O)[C@H](Cc1ccc(O)cc1)NC(=O)[C@H](Cc1c[nH]cn1)NC(=O)[C@H](CS)NC(=O)[C@H](Cc1ccccc1)NC(=O)[C@H](CCCCN)NC(=O)CNC(=O)[C@@H](NC(=O)[C@H](CS)NC(=O)[C@H](CCSC)NC(=O)[C@H](CCSC)NC(=O)[C@@H](NC(=O)[C@@H](NC(=O)[C@@H]1CCCN1C(=O)[C@H](CCCCN)NC(=O)[C@@H](NC(=O)[C@@H](NC(=O)[C@H](CCCCN)NC(=O)[C@@H]1CCCN1C(=O)[C@H](CS)NC(=O)[C@H](CC(=O)O)NC(=O)[C@H](CC(=O)O)NC(=O)[C@@H](NC(=O)[C@@H](NC(=O)[C@H](C)NC(=O)[C@H](CS)NC(=O)[C@H](CCCNC(=N)N)NC(=O)[C@@H](NC(=O)[C@H](CC(=O)O)NC(=O)[C@H](CC(C)C)NC(=O)[C@H](CCCCN)NC(=O)[C@@H](N)CCC(=O)O)[C@@H](C)CC)[C@@H](C)O)C(C)C)C(C)C)[C@@H](C)O)C(C)C)C(C)C)[C@@H](C)O)C(C)C)C(=O)N[C@@H](CC(C)C)C(=O)O [NCR073] (H-EKLDIRCATVDDCPKVTKPVVMMCTGKFCHYFFVRKQIL-OH; N-terminus assumed)	1.6 (≈ 7.3 µg/mL)	3.125 (≈ 14.3 µg/mL)	6.25 (≈ 28.5 µg/mL)	6.25 (≈ 28.5 µg/mL)	6.25 (≈ 28.5 µg/mL)	6.25 (≈ 28.5 µg/mL)	able to kill	6.25 (≈ 28.5 µg/mL)	6.25 (≈ 28.5 µg/mL)	capable of killing all tested bacteria; also recorded: active against all the eight tested pathogens
CSCC[C@H](NC(=O)[C@H](Cc1ccccc1)NC(=O)[C@H](CCCCN)NC(=O)[C@@H]1CCCN1C(=O)[C@H](CS)NC(=O)[C@H](CCCNC(=N)N)NC(=O)CNC(=O)[C@H](CC(=O)O)NC(=O)[C@H](CCCNC(=N)N)NC(=O)CNC(=O)[C@H](CS)NC(=O)[C@H](CC(C)C)NC(=O)[C@@H](NC(=O)[C@H](CCCNC(=N)N)NC(=O)[C@@H](N)CCSC)C(C)C)C(=O)N[C@@H](CS)C(=O)N[C@@H](CCCNC(=N)N)C(=O)N[C@H](C(=O)N[C@@H](Cc1ccccc1)C(=O)N[C@@H](CC(C)C)C(=O)O)[C@@H](C)O [NCR280] (H-MRVLCGRDGRCPKFMCRTFL-OH; N-terminus assumed)	1.6 (≈ 3.82 µg/mL)	3.125 (≈ 7.47 µg/mL)	25 (≈ 59.8 µg/mL)	12.5 (≈ 29.9 µg/mL)	3.125 (≈ 7.47 µg/mL)				3.125 (≈ 7.47 µg/mL)	active against all strains except S. aureus and E. faecalis
CC[C@H](C)[C@H](NC(=O)[C@H](CC(N)=O)NC(=O)[C@H](Cc1ccc(O)cc1)NC(=O)[C@H](CCCCN)NC(=O)[C@H](CCCCN)NC(=O)[C@H](Cc1ccccc1)NC(=O)[C@H](CCCCN)NC(=O)[C@@H]1CCCN1C(=O)[C@H](CS)NC(=O)[C@H](CC(=O)O)NC(=O)[C@H](CCCCN)NC(=O)[C@H](CC(=O)O)NC(=O)[C@@H](NC(=O)[C@@H](NC(=O)[C@H](CS)NC(=O)[C@H](Cc1ccc(O)cc1)NC(=O)[C@H](CCC(N)=O)NC(=O)[C@H](CCCNC(=N)N)NC(=O)[C@@H](NC(=O)[C@H](CC(C)C)NC(=O)[C@@H]1CCCN1C(=O)[C@H](CC(N)=O)NC(=O)[C@H](Cc1ccccc1)NC(=O)[C@H](CO)NC(=O)[C@@H](N)CC(=O)O)[C@@H](C)CC)C(C)C)[C@@H](C)O)C(=O)N[C@@H](CCCNC(=N)N)C(=O)N[C@@H](CS)C(=O)N[C@@H](CCCNC(=N)N)C(=O)N[C@@H](CCCCN)C(=O)NCC(=O)N[C@@H](Cc1ccccc1)C(=O)N[C@@H](CS)C(=O)N[C@H](C(=O)N[C@@H](CCC(N)=O)C(=O)N[C@H](C(=O)N[C@@H](CC(N)=O)C(=O)NCC(=O)NCC(=O)O)C(C)C)C(C)C [NCR377] (H-DSFNPLIRQYCVTDKDCPKFKKYNIRCRKGFCVQVNGG-OH; N-terminus assumed)	6.25 (≈ 27.8 µg/mL)	3.125 (≈ 13.9 µg/mL)	12.5 (≈ 55.5 µg/mL)	3.125 (≈ 13.9 µg/mL)	6.25 (≈ 27.8 µg/mL)	6.25 (≈ 27.8 µg/mL)			12.5 (≈ 55.5 µg/mL)	kill all bacteria except E. faecalis
CC[C@H](C)[C@H](NC(=O)[C@H](CC(C)C)NC(=O)[C@H](CC(N)=O)NC(=O)[C@@H](NC(=O)[C@H](CS)NC(=O)[C@H](Cc1ccc(O)cc1)NC(=O)CNC(=O)[C@H](CCCCN)NC(=O)[C@H](CCCNC(=N)N)NC(=O)[C@H](CS)NC(=O)[C@H](CCCNC(=N)N)NC(=O)[C@@H](NC(=O)[C@H](CC(N)=O)NC(=O)[C@H](CCSC)NC(=O)CNC(=O)[C@H](C)NC(=O)[C@H](CCCNC(=N)N)NC(=O)[C@H](CCCNC(=N)N)NC(=O)[C@@H](NC(=O)[C@H](CS)NC(=O)[C@H](CC(=O)O)NC(=O)[C@H](CCCCN)NC(=O)[C@H](CC(=O)O)NC(=O)[C@@H](NC(=O)[C@@H](NC(=O)[C@H](CS)NC(=O)[C@@H]1CCCN1C(=O)[C@H](CC(N)=O)NC(=O)[C@@H]1CCCN1C(=O)[C@@H](NC(=O)[C@H](Cc1c[nH]cn1)NC(=O)[C@H](CO)NC(=O)[C@H](Cc1ccc(O)cc1)NC(=O)[C@@H](N)Cc1ccccc1)C(C)C)[C@@H](C)CC)[C@@H](C)O)[C@@H](C)CC)[C@@H](C)CC)C(C)C)C(=O)N[C@@H](CC(C)C)C(=O)N[C@@H](CCCNC(=N)N)C(=O)O [NCR700] (H-FYSHVPNPCITDKDCIRRAGMNIRCRKGYCVNLILR-OH; N-terminus assumed)	1.6 (≈ 6.76 µg/mL)	3.125 (≈ 13.2 µg/mL)	12.5 (≈ 52.8 µg/mL)	6.25 (≈ 26.4 µg/mL)	12.5 (≈ 52.8 µg/mL)				1.6 (≈ 6.76 µg/mL)	active against all strains except S. aureus and E. faecalis
CC[C@H](C)[C@H](NC(=O)[C@H](CO)NC(=O)[C@@H](NC(=O)[C@H](CO)NC(=O)[C@@H]1CCCN1C(=O)[C@@H]1CCCN1C(=O)[C@H](CS)NC(=O)[C@H](CC(=O)O)NC(=O)[C@@H](NC(=O)[C@H](CC(=O)O)NC(=O)[C@@H](NC(=O)[C@H](CCCCN)NC(=O)[C@H](CS)NC(=O)[C@H](CCCCN)NC(=O)[C@@H](NC(=O)[C@H](C)NC(=O)[C@@H](NC(=O)[C@H](C)N)C(C)C)[C@@H](C)O)[C@@H](C)O)C(C)C)[C@@H](C)O)C(=O)N[C@@H](CCCNC(=N)N)C(=O)N[C@@H](CCCNC(=N)N)C(=O)N[C@@H](Cc1ccc(O)cc1)C(=O)N[C@@H](CCCCN)C(=O)N[C@@H](CS)C(=O)N[C@H](C(=O)N[C@@H](CCCCN)C(=O)N[C@@H](CC(N)=O)C(=O)N[C@@H](CCCCN)C(=O)N[C@@H](CS)C(=O)N[C@@H](CCCNC(=N)N)C(=O)N[C@@H](Cc1ccc(O)cc1)C(=O)N[C@H](C(=O)N[C@@H](CCCNC(=N)N)C(=O)N[C@@H](CC(C)C)C(=O)N[C@@H](CO)C(=O)N[C@@H](Cc1ccc(O)cc1)C(=O)NCC(N)=O)[C@@H](C)O)[C@@H](C)O [PsNCR351] (H-AVATKCKTDVDCPPSTSIRRYKCTKNKCRYTRLSYG-NH2; N-terminus assumed)	3.125 (≈ 12.9 µg/mL)	3.125 (≈ 12.9 µg/mL)		3.125 (≈ 12.9 µg/mL)	25 (≈ 103 µg/mL)	6.25 (≈ 25.7 µg/mL)	able to kill	12.5 (≈ 51.4 µg/mL)	6.25 (≈ 25.7 µg/mL)	
